Values belong to the molecule of their own block, whether it stands above or below them. Residues, ends and D or L forms follow the SMILES beside them.
Assays:
kisspeptin receptor [1] = molecular target: T1, kisspeptin receptor (Homo sapiens, UniProt Q969F8); assay: BRET assay, G15 pathway; type: cell-based; set-up: expressed in transfected cells; host or cells: HeLa cells, transient transfection with PEI; settings: for EC50 / Emax: HeLa cells, G15 pathway; for EC50: read-out: pEC50 G15 (converted); for Emax: KP10 = 100%
Text: (§1) The Bioluminescence Resonance Energy Transfer (BRET) assay was developed as described before. Briefly, HeLa cells were transiently transfected with these plasmids encoding for the GPCR, Gα subunit, the G protein effectors tagged with the BRET donor (RlucII), and the plasma membrane anchor (the CAAX motif from KRas, which includes a prenylation and a polybasic domain) fused to the BRET acceptor rGFP using Polietilendiimine (PEI) as described in Avet et al.. Fourty-eight hours post-transfection, cells were incubated with the coelenterazine substrate for Renilla luciferase Prolume Purple, stimulated with kisspeptin receptor agonists for 10 min and BRET signals were measured using a dual-filter luminometer (SPARK, Tecan Life Sciences, Männedorf, Switzerland). BRET ratios were calculated by dividing the acceptor emission by the donor emission, providing a quantitative measure for […]. Data were analyzed using Prism 8.0 (GraphPad) to determine interaction dynamics under various experimental conditions.

kisspeptin receptor [2] = molecular target: T1, kisspeptin receptor; assay: BRET assay, G14 pathway; type: cell-based; set-up: expressed in transfected cells; host or cells: HeLa cells, transient transfection with PEI; settings: for EC50 / Emax: HeLa cells, G14 pathway; for EC50: read-out: pEC50 G14 (converted); for Emax: KP10 = 100%
Text: as §1

kisspeptin receptor [3] = molecular target: T1, kisspeptin receptor; assay: BRET assay, Gq pathway; type: cell-based; set-up: expressed in transfected cells; host or cells: HeLa cells, transient transfection with PEI; settings: for EC50 / Emax: HeLa cells, Gq pathway; for Emax: KP10 = 100%
Text: as §1

kisspeptin receptor [4] = molecular target: T1, kisspeptin receptor; assay: BRET assay, Gz pathway; type: cell-based; set-up: expressed in transfected cells; host or cells: HeLa cells, transient transfection with PEI; settings: for EC50 / Δ(logτ/KA) bias factor, Gαz pathway / Emax: HeLa cells; for EC50 / Emax: Gz pathway; for Δ(logτ/KA) bias factor, Gαz pathway: operational model, KP10 as reference; for Emax: KP10 = 100%
Text: as §1, with “conditions. The bias factor for the kisspeptin analogs was calculated using the operational model of agonism as described by Kenakin [31]. Emax and EC50 values were determined for each signaling pathway (e.g., G protein activation, β-arrestin recruitment). The data were then fitted to the operational model to estimate transduction coefficients (τ). The bias factor (ΔLog(τ/KA)) was calculated by comparing the τ/KA values for each pathway relative to a reference pathway. This method quantifies signaling bias by evaluating relative efficacy and potency across pathways. Statistical significance of the observed bias was assessed to ensure the differences were not due to random variation. All calculations and analyses were performed using GraphPad Prism software (GraphPad, San Diego, CA, USA).” for “conditions.”

kisspeptin receptor [5] = molecular target: T1, kisspeptin receptor; assay: BRET assay, β-arrestin2 recruitment; type: cell-based; set-up: expressed in transfected cells; host or cells: HeLa cells, transient transfection with PEI; settings: for EC50 / Emax: HeLa cells, β-arrestin2 recruitment; for Emax: KP10 = 100%
Text: as §1

HEK293T cells = assay: Cytotoxicity MTT assay, HEK293T; type: cell-based, human; settings: 48 h
Description: (§2) Human cervical adenocarcinoma (HeLa) cells (cat# CRM-CCL-2) were obtained from the American Type Culture Collection (ATCC, Manassas, VA, USA). Human breast adenocarcinoma (MCF7) cells, Human prostate adenocarcinoma (PC3) cells, Human gastric adenocarcinoma (AGS) cells and Human Embryonic Kidney cells (HEK293T) were kindly provided by the Universidad Industrial de Santander. HeLa, MCF7, and HEK293T cells were cultured in DMEM medium supplemented with 10% FBS (fetal bovine serum), 1% penicillin/streptomycin. PC3 and AGS cells were cultured in RPMI medium supplemented with 10% FBS, 1% penicillin/streptomycin. All cells were maintained at 37 °C and 5% CO2.
(§3) 15,000 cells per well were plated in 96-well plates (Greiner, Fisher Scientific, Waltham, MA, USA) using a fully complemented medium, and incubated at 37 °C. Following a 24 h period, cells underwent serum starvation before being treated with KP10 and its analogs at concentrations of 10, 100, 250, and 500 nM for 48 h. Subsequently, each well received 100 µL of MTT solution (0.5 mg/mL), and the plates were incubated at 37 °C for 3 h. After adding the MTT solvent and further incubation for 15 min, the resultant absorbance was measured at 590 nm using a BioTech RT-2100C microplate reader. Data analysis was performed using Prism 8.0 software (GraphPad).

kisspeptin receptor [6] = molecular target: T1, kisspeptin receptor; assay: BRET assay, G11 pathway; type: cell-based; set-up: expressed in transfected cells; host or cells: HeLa cells, transient transfection with PEI; settings: for EC50 / Emax: HeLa cells, G11 pathway; for EC50: read-out: pEC50 G11 (converted); for Emax: KP10 = 100%
Text: as §1

PC3 cells [7] = assay: Cytotoxicity MTT assay, PC3; type: cell-based, human; settings: 48 h
Description: as §2, §3

HeLa cells [8] = assay: Cytotoxicity MTT assay, HeLa; type: cell-based, human; settings: 48 h
Description: as §2, §3

MCF7 cells [9] = assay: Cytotoxicity MTT assay, MCF7; type: cell-based, human; settings: 48 h
Description: as §2, §3

kisspeptin receptor [10] = molecular target: T1, kisspeptin receptor; assay: BRET assay, β-arrestin1 recruitment; type: cell-based; set-up: expressed in transfected cells; host or cells: HeLa cells, transient transfection with PEI; settings: for Emax / EC50: HeLa cells, β-arrestin1 recruitment; for Emax: KP10 = 100%; for EC50: mean of 4 experiments
Text: as §1

PC3 cells [11] = assay: In vitro wound healing assay, PC3; type: cell-based, human; settings: PC3, difference to control less marked
Description: (§4) Cells (3 × 10^5 cells/well) were seeded in 24-well plates for 24 h. Then, a sterile pipette tip of 20–200 μL was held vertically to create a cross-shaped scratch in each well. The detached cells were carefully removed by washing with 500 μL PBS and shaking at 500 rpm for 5 min. Then, 500 μL of medium containing the peptides to be tested was added to each well and incubated for 72 h. Prior taking each image, the plate was washed with 500 μL of PBS and gently shaken for 30 s. Then, 500 μL of medium containing the corresponding peptides was added to each well again and images were taken at 24 h intervals using a Primovert microscope at 4× magnification and 1/3700 s exposure time. Wound opening areas were obtained using Prism 8.0 software (GraphPad).

HeLa cells [12] = assay: In vitro wound healing assay, HeLa; type: cell-based, human; settings: particularly at 48 and 72 h
Description: as §4

AGS cells = assay: In vitro wound healing assay, AGS; type: cell-based, human; settings: difference to control less marked
Description: as §4

MCF7 cells [13] = assay: In vitro wound healing assay, MCF7; type: cell-based, human; settings: MCF7, particularly at 48 and 72 h
Description: as §4

kisspeptin receptor [14] = molecular target: T1, kisspeptin receptor
kisspeptin receptor [15] = molecular target: T1, kisspeptin receptor; remark: listed apart in the source
[16] = mean of 4 experiments, read-out: EC50(M) Gz
[17] = read-out: pEC50 β-arrestin2 (converted)
[18] = mean of 4 experiments, read-out: EC50(M) β-arrestin2

T1 sequence (Q969F8 whole entry, the tested form may be a part): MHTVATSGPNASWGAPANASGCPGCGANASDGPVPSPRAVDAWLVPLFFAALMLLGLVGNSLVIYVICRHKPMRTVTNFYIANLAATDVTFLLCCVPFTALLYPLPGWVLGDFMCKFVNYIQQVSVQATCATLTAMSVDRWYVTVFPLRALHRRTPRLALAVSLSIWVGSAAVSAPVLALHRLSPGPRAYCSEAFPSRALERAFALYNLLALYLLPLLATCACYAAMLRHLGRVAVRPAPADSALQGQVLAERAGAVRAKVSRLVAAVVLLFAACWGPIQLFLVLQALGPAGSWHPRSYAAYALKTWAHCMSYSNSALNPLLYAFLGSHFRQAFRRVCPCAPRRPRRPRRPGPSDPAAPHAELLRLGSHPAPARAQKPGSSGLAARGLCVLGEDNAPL

Molecule: CC(C)C[C@H](NC(=O)CNC(=O)[C@H](Cc1ccccc1)NC(=O)[C@H](CO)NC(=O)[C@H](CC(N)=O)NC(=O)[C@H](Cc1c[nH]c2ccccc12)NC(=O)[C@H](CC(N)=O)NC(=O)[C@@H](N)Cc1ccc(O)cc1)C(=O)N[C@@H](CCCN=C(N)N)C(=O)N[C@@H](Cc1ccccc1)C(N)=O [KP-10, kisspeptin-10, reference compound]
EC50 (kisspeptin receptor [1]): 26.9 nM
EC50 (kisspeptin receptor [2]): 33.1 nM
EC50 (kisspeptin receptor [3]): 13.5 nM
EC50 (kisspeptin receptor [4]; [16]): 1.63e-07 M
EC50 (kisspeptin receptor [4]; read-out: pEC50 Gz (converted)): 1.35e-07 M
Δ(logτ/KA) bias factor, Gαz pathway (kisspeptin receptor [4]): 0
EC50 (kisspeptin receptor [5]; [17]): 3.72e-07 M
pIC50 HEK293T (HEK293T cells): 2.489
EC50 (kisspeptin receptor [6]): 38 nM
pIC50 PC3 (PC3 cells [7]): 2.678

Molecule: Ala^10-KP10: Tyr-Asn-Trp-Asn-Ser-Phe-Gly-Leu-Arg-Ala; KP10 Ala-scan analog (YNWNSFGLRA; printed: Tyr-Asn-Trp-Asn-Ser-Phe-Gly-Leu-Arg-Ala)
pIC50 HeLa (HeLa cells [8]): 2.493
pIC50 PC3 (PC3 cells [7]): 1.739

Emax (kisspeptin receptor [1]): 99.5%
EC50 (kisspeptin receptor [1]): 135 nM
Fc G15 (kisspeptin receptor [1]; fold change of EC50 relative to KP10, G15 pathway): 4.92
Emax (kisspeptin receptor [2]): 100%
EC50 (kisspeptin receptor [2]): 166 nM
Fc G14 (kisspeptin receptor [2]; fold change of EC50 relative to KP10, G14 pathway): 4.28
EC50 (kisspeptin receptor [3]): 85.1 nM
Emax (kisspeptin receptor [3]): 107%
Fc Gq (kisspeptin receptor [3]; fold change of EC50 relative to KP10, Gq pathway): 5.76
Emax (kisspeptin receptor [4]): 94%
EC50 (kisspeptin receptor [4]; [16]): 6.46e-07 M
EC50 (kisspeptin receptor [4]; read-out: pEC50 Gz (converted)): 5.75e-07 M
Fc Gz (kisspeptin receptor [4]; fold change of EC50 relative to KP10, Gz pathway): 3.96
Δ(logτ/KA) bias factor, Gαz pathway (kisspeptin receptor [4]): −0.7
Emax (kisspeptin receptor [5]): 63.9%
EC50 (kisspeptin receptor [5]; [18]): 1.43e-06 M
EC50 (kisspeptin receptor [5]; [17]): 1e-06 M
Fc β-arrestin2 (kisspeptin receptor [5]; fold change of EC50 relative to KP10, β-arrestin2): 3.82
Emax (kisspeptin receptor [6]): 102%
EC50 (kisspeptin receptor [6]): 209 nM
Fc G11 (kisspeptin receptor [6]; fold change of EC50 relative to KP10, G11 pathway): 4.65
Emax (kisspeptin receptor [10]): 69%
EC50 (kisspeptin receptor [10]): 1190 nM
Fc β-arrestin1 (kisspeptin receptor [10]; fold change of EC50 relative to KP10, β-arrestin1): 2.01
Molecule: CC(C)C[C@H](NC(=O)CNC(=O)[C@H](Cc1ccccc1)NC(=O)[C@H](CO)NC(=O)[C@H](CC(N)=O)NC(=O)[C@H](C)NC(=O)[C@H](CC(N)=O)NC(=O)[C@@H](N)Cc1ccc(O)cc1)C(=O)N[C@@H](CCCNC(=N)N)C(=O)N[C@@H](Cc1ccccc1)C(N)=O [Ala^3-KP10] (H-YNANSFGLRF-NH2; N-terminus assumed)
pIC50 MCF7 (MCF7 cells [9]): 2.624

Molecule: Ala^1-KP10: Ala-Asn-Trp-Asn-Ser-Phe-Gly-Leu-Arg-Phe; KP10 Ala-scan analog (ANWNSFGLRF; printed: Ala-Asn-Trp-Asn-Ser-Phe-Gly-Leu-Arg-Phe)
pIC50 HeLa (HeLa cells [8]): 2.483
pIC50 HEK293T (HEK293T cells): 2.311
pIC50 PC3 (PC3 cells [7]): 2.475

Emax (kisspeptin receptor [1]): 101%
EC50 (kisspeptin receptor [1]): 339 nM
Emax (kisspeptin receptor [2]): 97.7%
EC50 (kisspeptin receptor [2]): 355 nM
EC50 (kisspeptin receptor [3]): 214 nM
Emax (kisspeptin receptor [3]): 104%
Emax (kisspeptin receptor [4]): 84.7%
EC50 (kisspeptin receptor [4]; [16]): 1.1e-06 M
EC50 (kisspeptin receptor [4]; read-out: pEC50 Gz (converted)): 9.12e-07 M
Δ(logτ/KA) bias factor, Gαz pathway (kisspeptin receptor [4]): −1.66
Emax (kisspeptin receptor [5]): 79%
EC50 (kisspeptin receptor [5]; [18]): 2.58e-06 M
EC50 (kisspeptin receptor [5]; [17]): 2.51e-06 M
Emax (kisspeptin receptor [6]): 106%
EC50 (kisspeptin receptor [6]): 447 nM
Emax (kisspeptin receptor [10]): 69.1%
EC50 (kisspeptin receptor [10]): 13000 nM
Molecule: CC(C)C[C@H](NC(=O)CNC(=O)[C@H](Cc1ccccc1)NC(=O)[C@H](CO)NC(=O)[C@H](C)NC(=O)[C@H](Cc1c[nH]c2ccccc12)NC(=O)[C@H](CC(N)=O)NC(=O)[C@@H](N)Cc1ccc(O)cc1)C(=O)N[C@@H](CCCNC(=N)N)C(=O)N[C@@H](Cc1ccccc1)C(N)=O [Ala^4-KP10] (H-YNWASFGLRF-NH2; N-terminus assumed)
migration inhibition (wound closure) (PC3 cells [11]): more inhibitory treatment
migration inhibition (wound closure) (HeLa cells [12]): most pronounced effects
migration inhibition (wound closure) (AGS cells): more inhibitory treatment
migration inhibition (wound closure) (MCF7 cells [13]): most pronounced effects
pIC50 PC3 (PC3 cells [7]): 2.541

Molecule: Ala^9-KP10: Tyr-Asn-Trp-Asn-Ser-Phe-Gly-Leu-Ala-Phe; KP10 Ala-scan analog (YNWNSFGLAF; printed: Tyr-Asn-Trp-Asn-Ser-Phe-Gly-Leu-Ala-Phe)
pIC50 HeLa (HeLa cells [8]): 2.429
pIC50 PC3 (PC3 cells [7]): 2.295

EC50 of Gαz pathway activation, effector-RlucII / rGFP-CAAX BRET biosensor in transfected HeLa cells, 10 min stimulation (kisspeptin receptor [14]): 1100 nM
EC50 of β-arrestin1 recruitment, BRET biosensor in transfected HeLa cells (kisspeptin receptor [15]): 13000 nM
EC50 of β-arrestin2 recruitment, BRET biosensor in transfected HeLa cells (kisspeptin receptor [15]): 2580 nM
Molecule: YNWASFGLRF [Ala^4-KP10]

EC50 of Gαz pathway activation, effector-RlucII / rGFP-CAAX BRET biosensor in transfected HeLa cells, 10 min stimulation (kisspeptin receptor [14]): 646 nM
EC50 of β-arrestin1 recruitment, BRET biosensor in transfected HeLa cells (kisspeptin receptor [15]): 1190 nM
EC50 of β-arrestin2 recruitment, BRET biosensor in transfected HeLa cells (kisspeptin receptor [15]): 1430 nM
Molecule: YNANSFGLRF [Ala^3-KP10]
